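Growth conditions: 96-well plates. Treatment: test compound, 48 hours, 5 concentrations. Analysis: linear interpolation between bracketing concentrations; unreached endpoints set to highest concentration. The concentration for 50% growth inhibition is given as GI50.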 Activity calls are given as the source filed them. Rule as the data show it: active = GI50 up to about 1.1 µM and inactive = higher.
Columns and labels:
Assay in all cases: NCI anticancer screen, dose series, 48 h
SN12C = system: SN12C
NCI-H226 = system: NCI-H226
NCI-H23 = system: NCI-H23
HOP-92 = system: HOP-92
HCC 2998 = system: HCC 2998
K562 = system: K562
SK-OV-3 = system: SK-OV-3
M14 = system: M14
MOLT-4 = system: MOLT-4
HOP-62 = system: HOP-62
CAKI-1 = system: CAKI-1
U-251 = system: U-251
HCT-15 = system: HCT-15
TK-10 = system: TK-10
UACC-62 = system: UACC-62
SF-539 = system: SF-539
A549 = system: A549

SMILES | GI50 (SN12C) | GI50 (NCI-H226) | GI50 (NCI-H23) | GI50 (HOP-92) | GI50 (HCC 2998) | GI50 (K562) | GI50 (SK-OV-3) | GI50 (M14) | GI50 (MOLT-4) | GI50 (HOP-62) | GI50 (CAKI-1) | GI50 (U-251) | GI50 (HCT-15) | GI50 (TK-10) | GI50 (UACC-62) | GI50 (SF-539) | GI50 (A549)
CN1C(=O)CN2C(Cl)(Cl)C2(c2ccccc2F)c2cc([N+](=O)[O-])ccc21 (stereo unspecified) | 25.2 µM (inactive) | 16.2 µM (inactive) | 76 µM (inactive) | 19.3 µM (inactive) | 22.7 µM (inactive) | 36.8 µM (inactive) | > 10 µM (inactive) | > 100 µM (inactive) | 17.3 µM (inactive) | > 100 µM (inactive) | > 100 µM (inactive) | 57.1 µM (inactive) | 41.4 µM | 60.7 µM (inactive) | 28.6 µM (inactive) |  | 
O=[N+]([O-])c1ccc(C2SCc3nc4ccccc4n32)cc1 (stereo unspecified) | 56.1 µM (inactive) | 29.2 µM (inactive) | 26.7 µM (inactive) | 23.1 µM (inactive) |  | 33.4 µM (inactive) | 92.9 µM (inactive) |  | 28.1 µM (inactive) | > 100 µM (inactive) | 61.4 µM (inactive) | 93.8 µM (inactive) |  | 43.4 µM (inactive) | 32.1 µM (inactive) | > 100 µM (inactive) | 50.4 µM (inactive)
COc1ccc(OC)c2c1CC(C(=O)O)(C(=O)O)CC2=O | > 100 µM (inactive) | > 100 µM (inactive) | > 100 µM (inactive) | > 100 µM (inactive) | > 100 µM (inactive) | > 100 µM (inactive) | > 100 µM (inactive) | > 100 µM (inactive) | > 100 µM (inactive) | > 100 µM (inactive) | > 100 µM (inactive) | > 100 µM (inactive) | > 100 µM | > 100 µM (inactive) | > 100 µM (inactive) |  | > 100 µM (inactive)
CC(C)N(C(=O)C12C3C4C1C1C4(C#N)C3C12C#N)C(C)C (stereo unspecified) | > 100 µM (inactive) | > 100 µM (inactive) | > 100 µM (inactive) | > 100 µM (inactive) | > 100 µM (inactive) | > 100 µM (inactive) | > 100 µM (inactive) | > 100 µM (inactive) | > 100 µM (inactive) | > 100 µM (inactive) | > 100 µM (inactive) | > 100 µM (inactive) | > 100 µM | > 100 µM (inactive) | > 100 µM (inactive) | > 100 µM (inactive) | > 100 µM (inactive)
CC(=O)N/C(=C\c1ccccc1/C=C(\NC(C)=O)c1nc2cc(C)c(C)cc2[nH]1)c1nc2cc(C)c(C)cc2[nH]1 | 17.1 µM (inactive) | 25.8 µM (inactive) | 8.17 µM (inactive) | 8.36 µM (inactive) |  | 28.6 µM (inactive) | 34.4 µM (inactive) | 9.84 µM (inactive) | 20.3 µM (inactive) | 14.2 µM (inactive) | 11.5 µM (inactive) | 6.59 µM (inactive) | > 10 µM | 24.4 µM (inactive) | 15.6 µM (inactive) | 19.7 µM (inactive) | 28 µM (inactive)
C=CCC12CC(=O)CCC1CC(=O)C2 (stereo unspecified) | > 100 µM (inactive) | > 100 µM (inactive) |  |  | > 100 µM (inactive) | > 100 µM (inactive) | > 100 µM (inactive) | > 100 µM (inactive) | > 100 µM (inactive) | > 100 µM (inactive) | > 100 µM (inactive) | > 100 µM (inactive) | > 100 µM | > 100 µM (inactive) | > 100 µM (inactive) | > 100 µM (inactive) | > 100 µM (inactive)
CCOC(=O)C1=C(C)N(NC(=O)OC)C2(N)N(NC(=O)OC)C(C)=C(C(=O)OCC)C12C#N (stereo unspecified) | > 100 µM (inactive) | > 100 µM (inactive) |  |  | > 100 µM (inactive) | > 100 µM (inactive) | > 100 µM (inactive) | > 100 µM (inactive) | > 100 µM (inactive) | > 100 µM (inactive) | > 100 µM (inactive) | > 100 µM (inactive) | > 100 µM |  | > 100 µM (inactive) | > 100 µM (inactive) | > 100 µM (inactive)
C[C@H](NC(=O)OC1C2C=CC(O)C1CC2)c1ccccc1 (stereo partly specified) | > 100 µM (inactive) | > 100 µM (inactive) | > 100 µM (inactive) |  | > 100 µM (inactive) | > 100 µM (inactive) | > 100 µM (inactive) | 31.1 µM (inactive) | > 100 µM (inactive) | > 100 µM (inactive) | > 100 µM (inactive) | > 100 µM (inactive) | 13.1 µM | > 100 µM (inactive) | > 100 µM (inactive) | > 100 µM (inactive) | > 100 µM (inactive)
Cc1ccc(C2C(Cl)C(=O)N2n2cnc3ccccc3c2=O)cc1 (stereo unspecified) | > 100 µM (inactive) | 26 µM (inactive) | > 100 µM (inactive) |  | > 100 µM (inactive) | 52.2 µM (inactive) | 67.3 µM (inactive) | > 100 µM (inactive) | 39.4 µM (inactive) | > 100 µM (inactive) | > 100 µM (inactive) | > 100 µM (inactive) | > 100 µM | > 100 µM (inactive) | 99.8 µM (inactive) |  | > 100 µM (inactive)
c1ccc(/N=c2\snc3scc(-c4ccccc4)n23)cc1 | 44.6 µM (inactive) | 26.7 µM (inactive) | 36.6 µM (inactive) | 34.2 µM (inactive) | 44.1 µM (inactive) | 52.6 µM (inactive) | 84.1 µM (inactive) | 33 µM (inactive) | 29.3 µM (inactive) | 30.5 µM (inactive) | 49.5 µM (inactive) | 26.8 µM (inactive) | 41.6 µM | 66.2 µM (inactive) | 30.1 µM (inactive) | 37.4 µM (inactive) | 37.5 µM (inactive)
O=C(c1ccccc1)c1ccc2cccc(OC3OC(CO)C(O)C(O)C3O)c2n1 (stereo unspecified) | > 100 µM (inactive) | > 100 µM (inactive) | > 100 µM (inactive) |  | > 100 µM (inactive) | > 100 µM (inactive) |  | > 100 µM (inactive) | > 100 µM (inactive) | > 100 µM (inactive) | > 100 µM (inactive) | > 100 µM (inactive) | > 100 µM | > 100 µM (inactive) | > 100 µM (inactive) | > 100 µM (inactive) | > 100 µM (inactive)
COc1ccc(C2S/C(=C\c3ccc(O)cc3)C(=O)N2NC(=O)Cc2ccccc2)cc1 (stereo unspecified) | > 100 µM (inactive) | > 100 µM (inactive) | > 100 µM (inactive) | > 100 µM (inactive) |  | > 100 µM (inactive) | > 100 µM (inactive) | > 100 µM (inactive) | > 100 µM (inactive) | > 100 µM (inactive) | > 100 µM (inactive) | > 100 µM (inactive) | > 100 µM | > 100 µM (inactive) | > 100 µM (inactive) | > 100 µM (inactive) | > 100 µM (inactive)
CCN1C(C)=NC2C(=O)c3ccccc3C(=O)C21 (stereo unspecified) | 40.8 µM (inactive) | 63 µM (inactive) | 50.7 µM (inactive) |  | 27.4 µM (inactive) | 78.9 µM (inactive) |  | 66.5 µM (inactive) | 43 µM (inactive) | 37.4 µM (inactive) |  | > 100 µM (inactive) | 57.4 µM | > 100 µM (inactive) | 43 µM (inactive) | 40.3 µM (inactive) | 41.6 µM (inactive)
O=C(O)CNS(=O)(=O)c1ccc(NC(=O)c2ccc([N+](=O)[O-])cc2)cc1 | > 100 µM (inactive) | > 100 µM (inactive) | > 100 µM (inactive) | > 100 µM (inactive) | > 100 µM (inactive) | > 100 µM (inactive) | > 100 µM (inactive) | > 100 µM (inactive) | > 100 µM (inactive) |  | > 100 µM (inactive) | > 100 µM (inactive) | > 100 µM | > 100 µM (inactive) | > 100 µM (inactive) | > 100 µM (inactive) | > 100 µM (inactive)
C[C@@H]1CC2(C[C@@H](C)C3[C@@H](CC4(C)CCCC5C6=CC(O)(CC[C@]34C)OC6=CC(=O)OC5(C)C)O2)OC1=O (stereo partly specified) | > 100 µM (inactive) | > 100 µM (inactive) | > 100 µM (inactive) | > 100 µM (inactive) | > 100 µM (inactive) | 84.3 µM (inactive) | > 100 µM (inactive) | > 100 µM (inactive) | > 100 µM (inactive) |  |  | > 100 µM (inactive) | > 100 µM | > 100 µM (inactive) | > 100 µM (inactive) | > 100 µM (inactive) | > 100 µM (inactive)
COc1cc(C2c3cc4c(cc3[C@@H](Nc3ccc(C(=O)O)cc3)C3COC(=O)[C@H]23)OCO4)cc(OC)c1O (stereo partly specified) | 31.7 µM (inactive) | 3.72 µM (inactive) | 10.6 µM (inactive) | 2.46 µM (inactive) | 28.4 µM (inactive) |  |  | 20.7 µM (inactive) | 0.721 µM (active) | 8.15 µM (inactive) | 4.98 µM (inactive) |  | 13.4 µM | 27.8 µM (inactive) | 10.6 µM (inactive) | 6.56 µM (inactive) | 18.3 µM (inactive)
CCC(=O)O[C@@H]1C2C(OC(C)=O)C34COC(C)([C@@H]3C3C(C[C@]3(C)OC(C)=O)[C@@H](OC(=O)c3ccccc3)C4=O)[C@H](OC(C)=O)[C@@]2(OC(C)=O)C[C@@H]1C (stereo partly specified) | > 100 µM (inactive) | 20 µM (inactive) | 14.9 µM (inactive) | 14.7 µM (inactive) | 64.7 µM (inactive) | > 10 µM (inactive) | 15.7 µM (inactive) | 33.9 µM (inactive) | > 100 µM (inactive) | 25.1 µM (inactive) | > 100 µM (inactive) | 10.4 µM (inactive) | 16 µM | 15.1 µM (inactive) | 75.9 µM (inactive) | 14.9 µM (inactive) | > 100 µM (inactive)
COC[C@@H]1Cc2cc(OC)c3c(c2[C@H](c2ccc(OC)c(OC)c2)[C@H]1COC)OCO3 [HYPOPHYLLANTHIN] | > 100 µM (inactive) |  | > 100 µM (inactive) | 70 µM (inactive) | > 100 µM (inactive) | > 10 µM (inactive) | > 100 µM (inactive) | 50 µM (inactive) | > 100 µM (inactive) |  |  | > 100 µM (inactive) | > 100 µM | > 100 µM (inactive) | > 100 µM (inactive) | 38.8 µM (inactive) | 69.8 µM (inactive)

Source: ChEMBL document CHEMBL1201862, “PubChem BioAssay data set” (2004)
